The supplement of paper PMC11451515

Tested on: SEM cells
Assay: cell viability relative to DMSO control; higher = less cytotoxic
Conditions: 48 h
Procedure, shortened: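 Library compounds in DMSO were pin-dosed in an 11-point threefold series (47 μM to 0.79 nM) onto leukemia cells in 1536-well plates (5 μl). Plates held 500 cells/well of NOMO1 or SEM or 1000 cells/well of P12-Ichikawa, each adapted for at least four passages in each medium. Luminescence was read with CellTiter-Glo One after 48 h at 37°C. Viability means the per-plate percentage relative to DMSO wells, using cell-free wells as background.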

[1] = HPLM + 10% dialyzed FBS, 0.000781 µM
[2] = HPLM + 10% dialyzed FBS, 0.00234 µM
[3] = HPLM + 10% dialyzed FBS, 0.00702 µM
[4] = HPLM + 10% dialyzed FBS, 0.0211 µM
[5] = HPLM + 10% dialyzed FBS, 0.0632 µM
[6] = HPLM + 10% dialyzed FBS, 0.19 µM
[7] = HPLM + 10% dialyzed FBS, 0.569 µM
[8] = HPLM + 10% dialyzed FBS, 1.71 µM
[9] = HPLM + 10% dialyzed FBS, 5.12 µM
[10] = HPLM + 10% dialyzed FBS, 15.4 µM
[11] = HPLM + 10% dialyzed FBS, 46.1 µM
[12] = RPMI 5 mM glucose + 10% FBS, 0.000781 µM
[13] = RPMI 5 mM glucose + 10% FBS, 0.00234 µM
[14] = RPMI 5 mM glucose + 10% FBS, 0.00702 µM
[15] = RPMI 5 mM glucose + 10% FBS, 0.0211 µM
[16] = RPMI 5 mM glucose + 10% FBS, 0.0632 µM
[17] = RPMI 5 mM glucose + 10% FBS, 0.19 µM
[18] = RPMI 5 mM glucose + 10% FBS, 0.569 µM
[19] = RPMI 5 mM glucose + 10% FBS, 1.71 µM
[20] = RPMI 5 mM glucose + 10% FBS, 5.12 µM
[21] = RPMI 5 mM glucose + 10% FBS, 15.4 µM
[22] = RPMI 5 mM glucose + 10% FBS, 46.1 µM
[23] = RPMI 5 mM glucose + 10% dialyzed FBS, 0.000781 µM
[24] = RPMI 5 mM glucose + 10% dialyzed FBS, 0.00234 µM
[25] = RPMI 5 mM glucose + 10% dialyzed FBS, 0.00702 µM
[26] = RPMI 5 mM glucose + 10% dialyzed FBS, 0.0211 µM
[27] = RPMI 5 mM glucose + 10% dialyzed FBS, 0.0632 µM
[28] = RPMI 5 mM glucose + 10% dialyzed FBS, 0.19 µM
[29] = RPMI 5 mM glucose + 10% dialyzed FBS, 0.569 µM
[30] = RPMI 5 mM glucose + 10% dialyzed FBS, 1.71 µM
[31] = RPMI 5 mM glucose + 10% dialyzed FBS, 5.12 µM
[32] = RPMI 5 mM glucose + 10% dialyzed FBS, 15.4 µM
[33] = RPMI 5 mM glucose + 10% dialyzed FBS, 46.1 µM

Row | SMILES | cell viability [1] | cell viability [2] | cell viability [3] | cell viability [4] | cell viability [5] | cell viability [6] | cell viability [7] | cell viability [8] | cell viability [9] | cell viability [10] | cell viability [11] | cell viability [12] | cell viability [13] | cell viability [14] | cell viability [15] | cell viability [16] | cell viability [17] | cell viability [18] | cell viability [19] | cell viability [20] | cell viability [21] | cell viability [22] | cell viability [23] | cell viability [24] | cell viability [25] | cell viability [26] | cell viability [27] | cell viability [28] | cell viability [29] | cell viability [30] | cell viability [31] | cell viability [32] | cell viability [33]
1 | COC(=O)Nc1nc2cc(Sc3ccccc3)ccc2[nH]1 | 107% | 108% | 119% | 115% | 124% | 130% | 100% | 102% | 22.6% | 24.1% | 24.2% | 119% | 121% | 131% | 129% | 113% | 114% | 93.2% | 91.6% | 15.3% | 18.6% | 18.2% |  |  |  |  |  |  |  |  |  |  | 
2 | CNC(=O)c1cc(COc2nnc(Nc3ccc(Cl)cc3)c3ccoc23)ccn1 | 108% | 112% | 102% | 110% | 121% | 97.9% | 96% | 108% | 102% | 79.9% | 61.2% | 124% | 124% | 110% | 124% | 117% | 127% | 128% | 129% | 97.1% | 95% | 64.7% | 96.6% | 108% | 90.4% | 99% | 95.4% | 104% | 102% | 86.1% | 88.4% | 70.4% | 47.9%
3 | CC1(C)NC(=O)N(c2ccc([N+](=O)[O-])c(C(F)(F)F)c2)C1=O | 88.7% | 89.7% | 82.5% | 90.8% | 96.9% | 44.9% | 94% | 90.8% | 81% | 87.4% | 84.6% | 98.7% | 79.5% | 92.9% | 96.7% | 104% | 86% | 99.6% | 94.9% | 110% | 87.7% | 93.9% | 99.4% | 91% | 101% | 109% | 96.3% | 74.5% | 104% | 106% | 106% | 78.9% | 90%
4 | O=C(/C=C/c1cccnc1)NCCCCC1CCN(C(=O)c2ccccc2)CC1 | 76.5% | 86.3% | 22.7% | 9.57% | 7.6% | 6.37% | 6.62% | 6.08% | 6.74% | 6.78% | 5.79% | 103% | 65.1% | 14.8% | 7.35% | 21.9% | 5.86% | 6.67% | 6.71% | 5.95% | 5.65% | 3.92% | 105% | 32% | 13.8% | 7.49% | 7.08% | 6.77% | 6.47% | 6.21% | 6.4% | 7.09% | 4.78%
5 | CC=CC1=C(C(=O)O)N2C(=O)[C@@H](NC(=O)[C@H](N)c3ccc(O)cc3)[C@H]2SC1.O | 71.1% | 70.5% | 79.2% | 92.5% | 91.4% | 81.3% | 90.1% | 83.9% | 72.8% | 91.6% | 82.1% | 86.4% | 96.4% | 93.8% | 97.7% | 90.9% | 92.9% | 98.8% | 115% | 86.6% | 105% | 94.6% | 84.8% | 97% | 98.4% | 115% | 109% | 86.1% | 110% | 110% | 84.7% | 112% | 114%
6 | COc1cc([C@@H]2c3cc4c(cc3[C@@H](O)C3COC(=O)C32)OCO4)cc(OC)c1O (stereo not given in full) | 73.2% | 86.7% | 86% | 21.1% | 84.4% | 46.9% | 22.2% | 24.3% | 16.6% | 11.3% | 9.58% | 96.4% | 83.3% | 101% | 13.1% | 104% | 47.6% | 19.7% | 14.7% | 9.69% | 4.01% | 4.26% | 78.6% | 70.2% | 98.2% | 16.1% | 82.9% | 52.8% | 19% | 19.5% | 11.8% | 7.08% | 4.88%
7 | COc1ccccc1OCC(O)CN1CCN(CC(=O)Nc2c(C)cccc2C)CC1 (stereo not given) | 81.9% | 101% | 98% | 121% | 126% | 123% | 111% | 118% | 136% | 130% | 136% | 104% | 135% | 122% | 128% | 134% | 148% | 123% | 142% | 134% | 129% | 131% | 115% | 128% | 114% | 136% | 125% | 135% | 137% | 121% | 132% | 130% | 126%
